# Measured values: patent US9062078B2, “Substituted 7-azabicyles and their use as orexin receptor modulators” (priority 2013, dated 2015)
# Where two headings read alike, the source gives them in different places.
# Experiments:
# [1] = biological target: human orexin 1 receptor (Homo sapiens (Human), UniProt O43613); test: Human orexin 1 receptor radioligand binding (competitive, [3H]-SB674042, CHO cell preparations)
# [2] = biological target: human orexin 2 receptor (Homo sapiens (Human), UniProt O43614); test: Human orexin 2 receptor radioligand binding (competitive, [3H]-EMPA, HEK293 cell preparations)
# [3] = biological target: rat orexin 1 receptor (Rattus norvegicus, UniProt P56718); test: Rat orexin 1 receptor radioligand binding (competitive, [3H]-SB674042, HEK293 cell preparations)
# [4] = human orexin 1 receptor, [3H]-SB674042 competition binding, read-out: hOX1 Ki (nm)
# [5] = human orexin 2 receptor, [3H]-EMPA competition binding, read-out: hOX2 Ki (nm)
# [6] = rat orexin 1 receptor, [3H]-SB674042 competition binding, read-out: rOX1 Ki (nm)
# human orexin 1 receptor, sequence (O43613 whole entry): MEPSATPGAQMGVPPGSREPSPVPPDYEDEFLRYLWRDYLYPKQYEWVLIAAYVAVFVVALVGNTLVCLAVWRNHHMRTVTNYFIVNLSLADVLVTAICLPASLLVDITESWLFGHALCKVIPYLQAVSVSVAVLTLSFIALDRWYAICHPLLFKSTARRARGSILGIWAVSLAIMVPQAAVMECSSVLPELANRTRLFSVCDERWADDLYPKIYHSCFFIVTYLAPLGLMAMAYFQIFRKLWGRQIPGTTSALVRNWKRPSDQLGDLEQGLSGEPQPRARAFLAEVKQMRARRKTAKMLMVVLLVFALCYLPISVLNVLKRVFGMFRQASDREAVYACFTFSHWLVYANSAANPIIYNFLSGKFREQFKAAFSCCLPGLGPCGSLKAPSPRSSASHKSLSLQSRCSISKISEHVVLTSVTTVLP
# human orexin 2 receptor, sequence (O43614 whole entry): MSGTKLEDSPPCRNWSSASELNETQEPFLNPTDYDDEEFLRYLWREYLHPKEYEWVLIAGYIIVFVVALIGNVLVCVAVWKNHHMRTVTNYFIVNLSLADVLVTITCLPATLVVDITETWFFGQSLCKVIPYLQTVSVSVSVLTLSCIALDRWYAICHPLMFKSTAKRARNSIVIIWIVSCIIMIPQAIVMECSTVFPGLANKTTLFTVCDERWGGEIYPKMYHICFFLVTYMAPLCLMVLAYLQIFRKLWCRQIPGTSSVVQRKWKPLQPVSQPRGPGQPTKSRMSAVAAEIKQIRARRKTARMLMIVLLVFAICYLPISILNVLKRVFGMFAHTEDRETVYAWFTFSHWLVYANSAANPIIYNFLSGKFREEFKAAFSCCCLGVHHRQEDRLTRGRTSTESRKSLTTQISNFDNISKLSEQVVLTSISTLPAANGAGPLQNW
compound,measurement,setting,value
"O=C(c1cc(F)ccc1-c1ccn[nH]1)N1C2CCC1C(COc1ccc(F)cn1)C2 (racemic) [Example 109, (±)-(5-fluoro-2-(1H-pyrazol-5-yl)phenyl)(2-(((5-fluoropyridin-2-yl)oxy)methyl)-7-azabicyclo[2.2.1]heptan-7-yl)methanone]",Ki,[1]; hOX1 Ki (nm),0.02 µM
same,Ki,[2]; hOX2 Ki (nm),0.099 µM
same,Ki,[3]; rOX1 Ki (nm),0.029 µM
"Cc1cccc(-n2nccn2)c1C(=O)N1C2CCC1C(COc1ccc(F)cn1)C2 (racemic) [Example 110, (±)-(2-(((5-fluoropyridin-2-yl)oxy)methyl)-7-azabicyclo[2.2.1]heptan-7-yl)(2-methyl-6-(2H-1,2,3-triazol-2-yl)phenyl)methanone]",Ki,[1]; [4],0.067 µM
same,Ki,[2]; [5],0.094 µM
same,Ki,[3]; [6],0.054 µM
"COc1ccc(-n2nccn2)c(C(=O)N2C3CCC2C(COc2ccc(F)cn2)C3)c1 (racemic) [Example 114, (±)-(2-(((5-fluoropyridin-2-yl)oxy)methyl)-7-azabicyclo[2.2.1]heptan-7-yl)(5-methoxy-2-(2H-1,2,3-triazol-2-yl)phenyl)methanone]",Ki,[1]; hOX1 Ki (nm),0.048 µM
same,Ki,[2]; hOX2 Ki (nm),0.073 µM
same,Ki,[3]; rOX1 Ki (nm),0.02 µM
"O=C(c1c(F)cccc1-n1nccn1)N1C2CCC1C(COc1ccc(F)cn1)C2 (racemic) [Example 115, (±)-(2-fluoro-6-(2H-1,2,3-triazol-2-yl)phenyl)(2-(((5-fluoropyridin-2-yl)oxy)methyl)-7-azabicyclo[2.2.1]heptan-7-yl)methanone]",Ki,[1]; hOX1 Ki (nm),0.078 µM
same,Ki,[2]; hOX2 Ki (nm),0.108 µM
same,Ki,[3]; rOX1 Ki (nm),0.057 µM
"O=C(c1ccc(F)cc1-n1nccn1)N1C2CCC1C(COc1ccc(F)cn1)C2 (racemic) [Example 116, (±)-(4-fluoro-2-(2H-1,2,3-triazol-2-yl)phenyl)(2-(((5-fluoropyridin-2-yl)oxy)methyl)-7-azabicyclo[2.2.1]heptan-7-yl)methanone]",Ki,[1]; [4],0.25 µM
same,Ki,[2]; [5],0.315 µM
same,Ki,[3]; [6],0.142 µM
"O=C(c1cccc(F)c1-n1nccn1)N1C2CCC1C(COc1ccc(F)cn1)C2 (racemic) [Example 117, (±)-(3-fluoro-2-(2H-1,2,3-triazol-2-yl)phenyl)(2-(((5-fluoropyridin-2-yl)oxy)methyl)-7-azabicyclo[2.2.1]heptan-7-yl)methanone]",Ki,[1]; hOX1 Ki (nm),0.082 µM
same,Ki,[2]; [5],0.245 µM
same,Ki,[3]; rOX1 Ki (nm),0.062 µM
"O=C(c1cc(Cl)ccc1-n1nccn1)N1C2CCC1C(COc1ccc(F)cn1)C2 (racemic) [Example 120, (±)-(5-chloro-2-(2H-1,2,3-triazol-2-yl)phenyl)(2-(((5-fluoropyridin-2-yl)oxy)methyl)-7-azabicyclo[2.2.1]heptan-7-yl)methanone]",Ki,[1]; [4],0.014 µM
same,Ki,[2]; [5],0.124 µM
same,Ki,[3]; [6],0.015 µM
"Cc1ccc(C(=O)N2C3CCC2C(COc2ccc(F)cn2)C3)c(-n2nccn2)c1 (racemic) [Example 121, (±)-(2-(((5-fluoropyridin-2-yl)oxy)methyl)-7-azabicyclo[2.2.1]heptan-7-yl)(4-methyl-2-(2H-1,2,3-triazol-2-yl)phenyl)methanone]",Ki,[1]; [4],0.068 µM
same,Ki,[2]; [5],0.34 µM
same,Ki,[3]; [6],0.078 µM
"Cc1ccc(C(=O)N2C3CCC2C(COc2ccc(F)cn2)C3)c(-c2ncccn2)c1 (racemic) [Example 122, (±)-(2-(((5-fluoropyridin-2-yl)oxy)methyl)-7-azabicyclo[2.2.1]heptan-7-yl)(4-methyl-2-(pyrimidin-2-yl)phenyl)methanone]",Ki,[1]; [4],0.154 µM
same,Ki,[2]; [5],1 µM
same,Ki,[3]; [6],0.118 µM
"O=C(c1cccc(F)c1-c1ncccn1)N1C2CCC1C(COc1ccc(F)cn1)C2 (racemic) [Example 124, (±)-(3-fluoro-2-(pyrimidin-2-yl)phenyl)(−2-(((5-fluoropyridin-2-yl)oxy)methyl)-7-azabicyclo[2.2.1]heptan-7-yl)methanone]",Ki,[1]; hOX1 Ki (nm),0.052 µM
same,Ki,[2]; [5],0.355 µM
same,Ki,[3]; rOX1 Ki (nm),0.083 µM
"Cc1cccc(C(=O)N2C3CCC2C(COc2ccc(F)cn2)C3)c1-n1nccn1 (racemic) [Example 125, (±)-(2-(((5-fluoropyridin-2-yl)oxy)methyl)-7-azabicyclo[2.2.1]heptan-7-yl)(3-methyl-2-(2H-1,2,3-triazol-2-yl)phenyl)methanone]",Ki,[1]; hOX1 Ki (nm),0.029 µM
same,Ki,[2]; [5],0.132 µM
same,Ki,[3]; rOX1 Ki (nm),0.047 µM
"O=C(c1cc(CO)ccc1-n1nccn1)N1C2CCC1C(COc1ccc(F)cn1)C2 (racemic) [Example 126, (±)-(2-(((5-fluoropyridin-2-yl)oxy)methyl)-7-azabicyclo[2.2.1]heptan-7-yl)(5-(hydroxymethyl)-2-(2H-1,2,3-triazol-2-yl)phenyl)methanone]",Ki,[1]; [4],0.027 µM
same,Ki,[2]; [5],0.231 µM
same,Ki,[3]; [6],0.023 µM
"CCOc1ncc(Br)cc1C(=O)N1C2CCC1C(COc1ccccn1)C2 (racemic) [Example 157, (±)-(5-bromo-2-ethoxypyridin-3-yl)(2-((pyridin-2-yloxy)methyl)-7-azabicyclo[2.2.1]heptan-7-yl)methanone]",Ki,[1]; hOX1 Ki (nm),0.134 µM
same,Ki,[2]; [5],0.537 µM
same,Ki,[3]; rOX1 Ki (nm),0.094 µM
"CCOc1ccnc(OCC)c1C(=O)N1C2CCC1C(COc1ccccn1)C2 (racemic) [Example 163, (±)-(2,4-diethoxypyridin-3-yl)(2-((pyridin-2-yloxy)methyl)-7-azabicyclo[2.2.1]heptan-7-yl)methanone]",Ki,[1]; [4],0.153 µM
same,Ki,[2]; [5],0.15 µM
same,Ki,[3]; [6],0.15 µM
"Cc1ccc(-n2nccn2)c(C(=O)N2C3CCC2C(COc2ncccc2C)C3)n1 (racemic) [Example 176, (±)-(6-methyl-3-(2H-1,2,3-triazol-2-yl)pyridin-2-yl)(2-(((3-methylpyridin-2-yl)oxy)methyl)-7-azabicyclo[2.2.1]heptan-7-yl)methanone]",Ki,[1]; read-out: hOX1 Ki (nm),0.15 µM
same,Ki,[2]; [5],0.202 µM
same,Ki,[3]; read-out: rOX1 Ki (nm),0.119 µM
"Cc1cnc(C(=O)N2C3CCC2C(Nc2cnc(C(F)(F)F)cn2)C3)c(-n2nccn2)c1 (racemic) [Example 184, (±)-(5-methyl-3-(2H-1,2,3-triazol-2-yl)pyridin-2-yl)(2-(5-(trifluoromethyl)pyrazin-2-yl)amino)-7-azabicyclo[2.2.1]heptan-7-yl)methanone]",Ki,[1]; [4],0.349 µM
same,Ki,[2]; hOX2 Ki (nm),4.1 µM
same,Ki,[3]; [6],0.189 µM
"Cc1ccc(-n2nccn2)c(C(=O)N2C3CCC2C(Nc2cnc(C(F)(F)F)cn2)C3)n1 (racemic) [Example 186, (±)-(6-methyl-3-(2H-1,2,3-triazol-2-yl)pyridin-2-yl)(2-(5-(trifluoromethyl)pyrazin-2-yl)amino)-7-azabicyclo[2.2.1]heptan-7-yl)methanone]",Ki,[1]; hOX1 Ki (nm),0.164 µM
same,Ki,[2]; hOX2 Ki (nm),1.2 µM
same,Ki,[3]; rOX1 Ki (nm),0.134 µM
"O=C(c1cccc(F)c1-c1ncccn1)N1C2CCC1C(Nc1ccc(C(F)(F)F)cn1)C2 (racemic) [Example 192, (±)-(3-fluoro-2-(pyrimidin-2-yl)phenyl)(2-((5-(trifluoromethyl)pyridin-2-yl)amino)-7-azabicyclo[2.2.1]heptan-7-yl)methanone]",Ki,[1]; hOX1 Ki (nm),0.052 µM
same,Ki,[2]; hOX2 Ki (nm),1.5 µM
same,Ki,[3]; rOX1 Ki (nm),0.06 µM
"Cc1ccc(-c2ncccn2)c(C(=O)N2C3CCC2C(Nc2ccc(C(F)(F)F)cn2)C3)n1 (racemic) [Example 195, (±)-(6-methyl-3-(pyrimidin-2-yl)pyridin-2-yl)(2-(5-(trifluoromethyl)pyridin-2-yl)amino)-7-azabicyclo[2.2.1]heptan-7-yl)methanone]",Ki,[1]; hOX1 Ki (nm),0.037 µM
same,Ki,[2]; hOX2 Ki (nm),0.325 µM
same,Ki,[3]; rOX1 Ki (nm),0.057 µM
